Our source for the Activity values is ChEMBL document CHEMBL1142502, “An endoplasmic reticulum (ER) stress-suppressive compound and its analogues from the mushroom Hericium erinaceum” (Bioorg Med Chem, 2008).

Active and inactive are the calls of the source. The calls are words filed in the database; no cut-off is given here.

Holding throughout (format): functional, cell-based
Assay [1] relates to N2a. As to the kind of experiment: Protection against thapsigargin-induced endoplasmic reticulum stress-dependent mouse Neuro2a cells death upto 10 ug/ml after 24 hrs by MTT assay. A general note: Formazan colour is commonly taken as a measure of viable cells.
Assay [2] concerns N2a. Description: Protection against tunicamycin-induced endoplasmic reticulum stress-dependent mouse Neuro2a cells death upto 10 ug/ml after 24 hrs by MTT assay.
The subject of assay [3] is N2a. As to the kind of experiment: Protection against tunicamycin-induced endoplasmic reticulum stress-dependent mouse Neuro2a cells death after 24 hrs by MTT assay.
The subject of assay [4] is N2a. As to the kind of experiment: Protection against thapsigargin-induced endoplasmic reticulum stress-dependent mouse Neuro2a cells death after 24 hrs by MTT assay.

As for `COc1cc2c(c3c1CCC(C)(CC(=O)C=C(C)C)O3)COC2=O` (racemic), the outcome in the assay on N2a [1] and in the assay with N2a [2] was inactive.
For the molecule `CCCCCCCCCCCCCCCC(=O)OCc1cc(OC)c2c(c1C=O)O[C@@](C)(CC(=O)C=C(C)C)[C@@H](O)C2` (relative stereo), the Activity result in the assay on N2a [3] and with N2a [4] was “Dose-dependent effect” in each case.
As for `COc1cc2c(c(O)c1C/C=C(\C)CCC=C(C)C)C(=O)OC2`, the outcome in the assay with N2a [1] and in the assay with N2a [2] was inactive.
